Test results from patent publication US12297165B2, “Oligothioetheramides (oligoteas) as anti-microbial and anti-bacterial agents” (Cornell University, priority 2017, dated 2025).

What was measured:
Assay type in all cases: cell-based
[1] = tested on: cell membrane of methicillin resistant Staphylococcus aureus (MRSA); experiment: Membrane permeabilization propidium iodide (PI) assay, MRSA
[2] = tested on: bacterial membrane; experiment: Cytoplasmic permeability assay with propidium iodide, fluorescence microscopy; details: incubated with PI
Method: Membrane permeabilization propidium iodide (PI) assay: 1 mM BDT-4G stock solutions were prepared in DMSO. B. subtilis strains were streaked onto a Luria Broth (LB) agar plate and incubated overnight. One colony was selected and incubated in LB overnight, then subcultured and incubated until the OD600 measured between 0.5 and 0.6. Bacteria were harvested, washed, and resuspended in a solution of 5 mM HEPES, 5 mM glucose, and 10 μM propidium iodide. 150 μL bacteria solution was added to each well of a black 96 well plate. Fluorescence measurements were taken at 535 nm excitation, 617 nm emission on a TECAN Infinite M1000 PRO Microplate reader (Männdorf) (TECAN) for 2 minutes. BDT-4G stock solution was added for a concentration of 15 μg/mL, and fluorescence measurements were taken for an additional 20 minutes.
Membrane permeabilization dictates lytic potential. A cytoplasmic permeability assay was performed using propidium iodide (PI). PI is a cell impermeant intercalating agent that fluoresces when bound to nucleic acids. As such, PI can be used to identify cells with compromised membranes by measuring an increase in fluorescence above the baseline. This phenomenon was qualitatively confirmed by performing fluorescence microscopy studies incubated with PI with or without the AOTs. […]

[3] = tested on: community associated Staphylococcus aureus (strain USA300); experiment: Minimum inhibitory concentration (MIC) assay, S. aureus USA300
Method: (§1) Biological Assays: Minimum inhibitory concentration (MIC) assay: A single bacterial colony (Bacillus subtilis (B. subtilis) or methicillin-resistant Staphylococcus aureus (MRSA)) was selected and incubated in media (Luria Broth (LB) for B. subtilis or Tryptic Soy Broth (TSB) for MRSA) at 37° C. overnight. This was sub-cultured in media and incubated at 37° C. until the OD600 was approximately 0.5 (2.5-3.5-hour incubation). The subculture was diluted with media to an OD600 of 0.001. Diluted subculture and 1 mM stocks of compounds to be tested were added to a clear 96-well plate, and serially diluted by a factor of 0.5. The well plate was incubated overnight and the absorbance was measured at 600 nm using the TECAN. To determine the MIC in presence of serum, assays were repeated using media with 20% heat-inactivated mouse serum or 20% fetal bovine serum. […] The MIC50 was calculated using a 4PL sigmoidal nonlinear regression on Prism. The MIC100 was calculated as the first point below 10% of the maximum.

[4] = tested on: E. coli; experiment: Minimum inhibitory concentration (MIC) assay, E. coli
[5] = tested on: Bacillus subtilis; experiment: Minimum inhibitory concentration (MIC) assay, B. subtilis
Method: as §1
The MIC of PEG24-LL-PDT4G against B. subtilis was compared with the MIC of unmodified PDT-4G. Both compounds were pre-incubated with B. subtilis supernatant for 0, 4, or 24 hours before the MIC assay to test cleavage kinetics (FIG. 53).

[6] = tested on: methicillin resistant Staphylococcus aureus (MRSA) (ATCC 33591); experiment: Minimum inhibitory concentration (MIC) assay, MRSA
Method: as §1

[7] = tested on: Pseudomonas aeruginosa (PA-14, PA-1); experiment: MIC assay, Pseudomonas aeruginosa strains; details: Pseudomonas aeruginosa PA-14 and PA-1
Source text: PA-14 is a highly virulent Pseudomonas aeruginosa strain (Gram-negative) that is difficult to treat. PA-1 is a meropenem resistant clinical isolate of Pseudomonas aeruginosa that was obtained from a patient. Meropenem, vancomycin and polymyxin B are commercial antibiotics that are used as controls.

[8] = normal (Tryptic Soy media) media
[9] = presence of elevated calcium and magnesium ions (25 mM) and presence of heat-inactivated fetal bovine serum
[10] = presence of elevated calcium and magnesium ions (25 mM)

CN[C@H](CC(C)C)C(=O)N[C@H]1C(=O)N[C@@H](CC(N)=O)C(=O)N[C@H]2C(=O)N[C@H]3C(=O)N[C@H](C(=O)N[C@H](C(=O)O)c4cc(O)cc(O)c4-c4cc3ccc4O)[C@H](O)c3ccc(c(Cl)c3)Oc3cc2cc(c3O[C@@H]2O[C@H](CO)[C@@H](O)[C@H](O)[C@H]2O[C@H]2C[C@](C)(N)[C@H](O)[C@H](C)O2)Oc2ccc(cc2Cl)[C@H]1O [Vancomycin]
membrane destabilization (diffusion of propidium iodide dye into the cell) [1]: no membrane compromise | propidium iodide entry into cells (staining) [2]: PI was unable to gain entry into cells

C=CCN(CCNC(=N)N)C(=O)CCSCCCCSCCCN(CCNC(=N)N)C(=O)CCSCCCCSCCCN(CCNC(=N)N)C(=O)CCSCCCCSCCCN(CCNC(=N)N)C(=O)CCSCCCCSCCCN(CCNC(=N)N)C(=O)CCSCCCCSCCCN [BDT-5G]
antibacterial activity (MIC100) against Staphylococcus aureus strain USA300 [3, 8]: show activity | antibacterial activity (MIC100) against Staphylococcus aureus strain USA300 [3, 9]: maintain their antibacterial activity | antibacterial activity (MIC100) against E. coli ([4]; normal (LB media) media): show activity | antibacterial activity (MIC100) against E. coli [4, 10]: maintain their antibacterial activity | antibacterial activity (MIC100) against Bacillus subtilis ([5]; normal (LB media) media): show activity | antibacterial activity (MIC100) against Bacillus subtilis [5, 10]: maintain their antibacterial activity | antibacterial activity (MIC100) against MRSA [6, 8]: show activity | antibacterial activity (MIC100) against MRSA [6, 9]: maintain their antibacterial activity

C=CCN(CCNC(=N)N)C(=O)CCSCCCSCCCN(CCNC(=N)N)C(=O)CCSCc1cccc(CSCCCN(CCNC(=N)N)C(=O)CCSCCCSCCCN)c1 [3GMG3G]
activity relative to the para substituted compound (3GPG3G) [7]: 2-4 fold

CCCCCCCCCC(=O)N[C@@H](Cc1c[nH]c2ccccc12)C(=O)N[C@H](CC(N)=O)C(=O)N[C@@H](CC(=O)O)C(=O)N[C@@H]1C(=O)NCC(=O)N[C@@H](CCCN)C(=O)N[C@@H](CC(=O)O)C(=O)N[C@H](C)C(=O)N[C@@H](CC(=O)O)C(=O)NCC(=O)N[C@H](CO)C(=O)N[C@@H]([C@H](C)CC(=O)O)C(=O)N[C@@H](CC(=O)c2ccccc2N)C(=O)O[C@@H]1C [daptomycin]
membrane destabilization (diffusion of propidium iodide dye into the cell) [1]: no membrane compromise
